This note sets out measurements from patent US20240025907A1, “QUINAZOLINE PAN-KRas INHIBITORS” (Mirati Therapeutics, Inc., priority 2022, published 2024).

Each structure is given as a SMILES string. Where two headings read alike, the source gives them in different places.

Assay [1] addresses T1, KRas^G12D (Homo sapiens, UniProt P01116, G12D).
T1 construct: Biotinylated KRas (corresponding to amino acids 1-169, produced at Accelegan Inc.); biotin (biotinylated); purchased Accelegan Inc
Kind of assay: KRas TR-FRET tracer displacement binding assay, G12D. The conditions noted are these: 60-minute incubation. The gist of the method: (§1)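 TR-FRET displacement: biotinylated KRas (aa 1-169) incubated with Cy5-labelled tracer, terbium streptavidin and compound (1% DMSO final) in 50 mM HEPES pH 7.5, 5 mM MgCl2, 0.005% Tween-20, 1 mM DTT. Read after 60-minute room-temperature incubation.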

Assay [2] deals with T2, KRas^G12V (Homo sapiens, UniProt P01116, G12V).
T2 construct: Biotinylated KRas (corresponding to amino acids 1-169, produced at Accelegan Inc.); biotin (biotinylated); purchased Accelegan Inc
T2 sequence (P01116 1-169 isoform P01116-2 G12V): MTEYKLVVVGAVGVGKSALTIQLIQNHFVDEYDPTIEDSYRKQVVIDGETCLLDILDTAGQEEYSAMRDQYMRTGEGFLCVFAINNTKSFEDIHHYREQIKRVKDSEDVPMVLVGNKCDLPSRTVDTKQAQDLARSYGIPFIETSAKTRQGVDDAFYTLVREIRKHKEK
Kind of assay: KRas TR-FRET tracer displacement binding assay, G12V. The conditions noted are these: 60-minute incubation. The gist of the method: as §1
Background: In TR-FRET formats the signal depends on donor and acceptor labels being close together.

Assay [3] deals with T3, KRas^WT (Homo sapiens, UniProt P01116).
T3 construct: Biotinylated KRas (corresponding to amino acids 1-169, produced at Accelegan Inc.); biotin (biotinylated); purchased Accelegan Inc
T3 sequence (P01116 1-169 isoform P01116-2): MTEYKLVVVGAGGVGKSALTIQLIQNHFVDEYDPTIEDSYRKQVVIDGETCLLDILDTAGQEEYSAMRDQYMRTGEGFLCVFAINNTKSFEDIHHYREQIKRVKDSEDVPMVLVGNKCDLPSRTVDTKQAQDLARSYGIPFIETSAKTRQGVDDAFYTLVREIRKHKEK
Kind of assay: KRas TR-FRET tracer displacement binding assay, WT. The conditions noted are these: 60-minute incubation. The gist of the method: as §1

Assay [4] addresses T4, KRas^G12C (Homo sapiens, UniProt P01116, G12C).
T4 construct: Biotinylated KRas (corresponding to amino acids 1-169, produced at Accelegan Inc.); biotin (biotinylated); purchased Accelegan Inc
Kind of assay: KRas TR-FRET tracer displacement binding assay, G12C. The conditions noted are these: 60-minute incubation. The gist of the method: as §1

In assay [5] the target is T5, KRas^G12S (Homo sapiens, UniProt P01116, G12S).
T5 construct: Biotinylated KRas (corresponding to amino acids 1-169, produced at Accelegan Inc.); biotin (biotinylated); purchased Accelegan Inc
T5 sequence (P01116 1-169 isoform P01116-2 G12S): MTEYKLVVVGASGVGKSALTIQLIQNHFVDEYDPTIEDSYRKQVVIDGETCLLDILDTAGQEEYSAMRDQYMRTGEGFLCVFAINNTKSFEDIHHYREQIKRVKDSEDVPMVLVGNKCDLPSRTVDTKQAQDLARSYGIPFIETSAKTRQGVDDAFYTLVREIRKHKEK
Kind of assay: KRas TR-FRET tracer displacement binding assay, G12S. To be noted: 60-minute incubation. The gist of the method:
as §1

The subject of assay [6] is KRas-mediated Phosphorylation of ERK in AsPC-1 cells. As to the kind of experiment: Cisbio HTRF pERK assay, AsPC-1 cells. The assay is classed as cell-based. The conditions noted are these: 3 hrs compound, read-out: Inhibition (HTRF IC50 nM) of KRas-mediated Phosphorylation of ERK, AsPC-1.
Assay [7] concerns KRas-mediated Phosphorylation of ERK in H727 cells. As to the kind of experiment: Cisbio HTRF pERK assay, H727 cells. It is filed as cell-based. To be noted: 3 hrs compound, read-out: Inhibition (HTRF IC50 nM) of KRas-mediated Phosphorylation of ERK, H727.
In assay [8] the test system is KRas-mediated Phosphorylation of ERK in HCT116 cells. Kind of assay: Cisbio HTRF pERK assay, HCT116 cells. It is filed as cell-based. To be noted: Homo sapiens, HCT-116, 3 h, HCT116 cells, 3 hrs compound; read-out: Inhibition (HTRF IC50 nM) of KRas-mediated Phosphorylation of ERK, HCT116.
For assay [9], the system named is KRas-mediated Phosphorylation of ERK in A549 cells. As to the kind of experiment: Cisbio HTRF pERK assay, A549 cells. It is filed as cell-based. To be noted: Homo sapiens, A549, 3 h, A549 cells, 3 hrs compound; read-out: Inhibition (HTRF IC50 nM) of KRas-mediated Phosphorylation of ERK, A549.
Assay [10] relates to KRas-mediated Phosphorylation of ERK in H460 cells. As to the kind of experiment: Cisbio HTRF pERK assay, H460 cells. The assay is classed as cell-based. To be noted: Homo sapiens, NCI-H460, 3 h, H460 cells, 3 hrs compound; read-out: Inhibition (HTRF IC50 nM) of KRas-mediated Phosphorylation of ERK, H460.
Assay [11] deals with KRas-mediated Phosphorylation of ERK in H358 cells. Kind of assay: Cisbio HTRF pERK assay, H358 cells. The assay is classed as cell-based. To be noted: Homo sapiens, NCI-H358, 3 h, H358 cells, 3 hrs compound; read-out: Inhibition (HTRF IC50 nM) of KRas-mediated Phosphorylation of ERK, H358.
The test system of assay [12] is KRas-mediated Phosphorylation of ERK in H2009 cells. As to the kind of experiment: Cisbio HTRF pERK assay, H2009 cells. It is filed as cell-based. To be noted: Homo sapiens, NCI-H2009, H2009 cells; read-out: Inhibition (HTRF IC50 nM) of KRas-mediated Phosphorylation of ERK, H2009.
In assay [13] the test system is KRas-mediated Phosphorylation of ERK in PSN1 cells. Kind of assay: Cisbio HTRF pERK assay, PSN1 cells. It is filed as cell-based. To be noted: Homo sapiens, PSN1, 3 h, 3 hour compound, read-out: Inhibition (HTRF IC50 nM) of KRas-mediated Phosphorylation of ERK, PSN1. The method, then:
(§2) Inhibition of KRas Phosphorylation of ERK (HTRF) by Exemplary Compounds of Formula (I) • Cisbio HTRF Advanced pERK Assay Catalog #64AERPEH • Cell: MKN1, PSN1 • Procedure: • Day 1: Seed 6,000 cells/well −25 μl/well in 384-well white solid bottom plate; RPM1_10% FBS.

The subject of assay [14] is KRas-mediated Phosphorylation of ERK in MKN1 cells. As to the kind of experiment: Cisbio HTRF pERK assay, MKN1 cells. It is filed as cell-based. To be noted: Homo sapiens, MKN-1, 3 hour compound, read-out: Inhibition (HTRF IC50 nM) of KRas-mediated Phosphorylation of ERK, MKN1. The method, then: as §2

T1 sequence (P01116 1-169 isoform P01116-2 G12D): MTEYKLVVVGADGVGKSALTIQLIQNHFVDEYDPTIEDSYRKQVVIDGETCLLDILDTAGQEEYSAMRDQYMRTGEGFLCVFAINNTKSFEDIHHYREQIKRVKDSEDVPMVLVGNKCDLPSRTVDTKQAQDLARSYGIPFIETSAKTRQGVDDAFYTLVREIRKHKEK
T4 sequence (P01116 1-169 isoform P01116-2 G12C): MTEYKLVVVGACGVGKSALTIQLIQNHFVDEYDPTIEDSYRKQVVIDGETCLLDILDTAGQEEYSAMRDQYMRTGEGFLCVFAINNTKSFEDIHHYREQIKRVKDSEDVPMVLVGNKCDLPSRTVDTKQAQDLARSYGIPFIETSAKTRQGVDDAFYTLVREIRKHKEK

`C[C@@]1(O)COCCN(c2nc(OC[C@@]34CCCN3C[C@H](F)C4)nc3c(F)c(-c4ccc(F)c5sc(N)c(C#N)c45)c(F)cc23)C1` [Example 216, 2-amino-4-(6,8-difluoro-2-(((2R,7aS)-2-fluorotetrahydro-1H-pyrrolizin-7a(5H)-yl)methoxy)-4-((S)-6-hydroxy-6-methyl-1,4-oxazepan-4-yl)quinazolin-7-yl)-7-fluorobenzo[b]thiophene-3-carbonitrile]: the half-inhibitory concentration (IC50) in [1] came to 4 nM; in [2], 4 nM; in assay [3], 6 nM; in [4] it was 6 nM; in assay [5], 5 nM; in [6] (Homo sapiens, ASPC1, 3 h) it was 175 nM. Also, the IC50 in [7] (Homo sapiens, NCI-H727, 3 h) amounted to 131 nM; in assay [8], 346 nM; in assay [9], 325 nM; in assay [10], 118 nM; in [11], 26 nM; in assay [12] it was 18 nM. Moreover, the IC50 in assay [13] is 2440 nM; in assay [14], 12 nM.
As for `COc1nc(OC[C@@]23CCCN2C[C@H](F)C3)nc2c(F)c(-c3ccc(F)c4sc(N)c(C#N)c34)c(Cl)cc12` [Example 220, 2-amino-4-(6-chloro-8-fluoro-2-(((2R,7aS)-2-fluorotetrahydro-1H-pyrrolizin-7a(5H)-yl)methoxy)-4-methoxyquinazolin-7-yl)-7-fluorobenzo[b]thiophene-3-carbonitrile], the IC50 in assay [6] (Homo sapiens, ASPC1, 3 h) is 202 nM; in assay [7] (Homo sapiens, NCI-H727, 3 h) it was 123 nM; in assay [8], 591 nM; in [9] it was 261 nM; in assay [10] it was 134 nM; in [11], 63 nM. The values for the half-maximal inhibitory concentration (IC50) in assay [12], in assay [13] and in assay [14] were 49 nM, 5870 nM and 45 nM, respectively.
On to `N#Cc1c(N)sc2c(F)ccc(-c3c(Cl)cc4c(NCC5CS(=O)(=O)C5)nc(OC[C@@]56CCCN5C[C@H](F)C6)nc4c3F)c12` [Example 222, 2-amino-4-(6-chloro-4-(((1,1-dioxidothietan-3-yl)methyl)amino)-8-fluoro-2-(((2R,7aS)-2-fluorotetrahydro-1H-pyrrolizin-7a(5H)-yl)methoxy)quinazolin-7-yl)-7-fluorobenzo[b]thiophene-3-carbonitrile], for which the IC50 came to 2560 nM in assay [6] (Homo sapiens, ASPC1, 3 h); 1440 nM in assay [7] (Homo sapiens, NCI-H727, 3 h); 1110 nM in assay [8]; 1640 nM in [9]; 911 nM in assay [10]; 207 nM in [11]. Further, the half-inhibitory concentration (IC50) was 273 nM in [12], > 10000 nM in [13] and 84 nM in assay [14].
With `C[C@@]1(O)COCCN(c2nc(OC[C@@]34CCCN3C[C@H](F)C4)nc3c(F)c(-c4ccc(F)c5sc(N)c(C#N)c45)c(Cl)cc23)C1` (atropisomer, axis not shown; (aS)) [Example 192, 2-amino-4-((R)-6-chloro-8-fluoro-2-(((2R,7aS)-2-fluorotetrahydro-1H-pyrrolizin-7a(5H)-yl)methoxy)-4-((S)-6-hydroxy-6-methyl-1,4-oxazepan-4-yl)quinazolin-7-yl)-7-fluorobenzo[b]thiophene-3-carbonitrile], the 50% inhibitory concentration (IC50) in assay [6] was determined as 3 nM; in assay [7], 5 nM; in [8] it was 12 nM; in assay [9], 8 nM; in assay [10], 4 nM; in assay [11], 1 nM. For the same compound, the half-inhibitory concentration (IC50) came out at 1 nM in [12], 260 nM in assay [13] and 1 nM in [14].
Consider `N#Cc1c(N)sc2c(F)ccc(-c3c(Cl)cc4c(N5CC(O)C5)nc(OC[C@@]56CCCN5C[C@H](F)C6)nc4c3F)c12` [Example 219, 2-amino-4-(6-chloro-8-fluoro-2-(((2R,7aS)-2-fluorotetrahydro-1H-pyrrolizin-7a(5H)-yl)methoxy)-4-(3-hydroxyazetidin-1-yl)quinazolin-7-yl)-7-fluorobenzo[b]thiophene-3-carbonitrile], for which the half-inhibitory concentration (IC50) came to 2900 nM in assay [6] (Homo sapiens, ASPC1, 3 h); 1070 nM in [7] (Homo sapiens, NCI-H727, 3 h); 2250 nM in [8]; 3340 nM in [9]; 1120 nM in assay [10]; 370 nM in assay [11]. For the same compound, the IC50 is 508 nM in assay [12], > 10000 nM in [13] and 266 nM in assay [14].
In the case of `CN(C)C(=O)c1cc2n(n1)CCCN(c1nc(OC[C@@]34CCCN3C[C@H](F)C4)nc3c(F)c(-c4ccc(F)c5sc(N)c(C#N)c45)c(F)cc13)C2` [Example 215, 5-(7-(2-amino-3-cyano-7-fluorobenzo[b]thiophen-4-yl)-6,8-difluoro-2-(((2R,7aS)-2-fluorotetrahydro-1H-pyrrolizin-7a(5H)-yl)methoxy)quinazolin-4-yl)-N,N-dimethyl-5,6,7,8-tetrahydro-4H-pyrazolo[1,5-a][1,4]diazepine-2-carboxamide], the IC50 in assay [1] was < 2 nM; in [2], < 2 nM; in [3], < 2 nM; in assay [4] it was 4 nM; in assay [5], < 2 nM; in [6] (Homo sapiens, ASPC1, 3 h), 25 nM. Further, the IC50 in assay [7] (Homo sapiens, NCI-H727, 3 h) was 35 nM; in [8], 392 nM; in assay [9] it was 393 nM; in assay [10] it was 223 nM; in assay [11] it was 21 nM; in assay [12], 34 nM. The results for the 50% inhibitory concentration (IC50) in assay [13] and in assay [14] were 3820 nM and 13 nM, respectively.
For the compound `N#Cc1c(N)sc2c(F)ccc(-c3c(Cl)cc4c(N5CC(CO)C5)nc(OC[C@@]56CCCN5C[C@H](F)C6)nc4c3F)c12` [Example 221, 2-amino-4-(6-chloro-8-fluoro-2-(((2R,7aS)-2-fluorotetrahydro-1H-pyrrolizin-7a(5H)-yl)methoxy)-4-(3-(hydroxymethyl)azetidin-1-yl)quinazolin-7-yl)-7-fluorobenzo[b]thiophene-3-carbonitrile], the half-maximal inhibitory concentration (IC50) in assay [6] (Homo sapiens, ASPC1, 3 h) came out at 962 nM; in [7] (Homo sapiens, NCI-H727, 3 h) it was 1240 nM; in [8], 573 nM; in assay [9] it was 635 nM; in assay [10], 394 nM; in assay [11], 154 nM. Besides, the IC50 in assay [12] worked out at 145 nM; in [13] it was 6040 nM; in assay [14], 86 nM.

As usually defined, the IC50 is the concentration needed to halve the response being measured.
